The source of these data is US20160311791A1, “NOVEL TRICYCLIC CALCIUM SENSING RECEPTOR ANTOGONISTS FOR THE TREATMENT OF OSTEOPOSOSIS” (MERCK SHARP & DOHME CORP., priority 2013, published 2016).

For the assay, the target named is T1, human CaSR (Homo sapiens, UniProt P41180).
T1 sequence (P41180 20-1078): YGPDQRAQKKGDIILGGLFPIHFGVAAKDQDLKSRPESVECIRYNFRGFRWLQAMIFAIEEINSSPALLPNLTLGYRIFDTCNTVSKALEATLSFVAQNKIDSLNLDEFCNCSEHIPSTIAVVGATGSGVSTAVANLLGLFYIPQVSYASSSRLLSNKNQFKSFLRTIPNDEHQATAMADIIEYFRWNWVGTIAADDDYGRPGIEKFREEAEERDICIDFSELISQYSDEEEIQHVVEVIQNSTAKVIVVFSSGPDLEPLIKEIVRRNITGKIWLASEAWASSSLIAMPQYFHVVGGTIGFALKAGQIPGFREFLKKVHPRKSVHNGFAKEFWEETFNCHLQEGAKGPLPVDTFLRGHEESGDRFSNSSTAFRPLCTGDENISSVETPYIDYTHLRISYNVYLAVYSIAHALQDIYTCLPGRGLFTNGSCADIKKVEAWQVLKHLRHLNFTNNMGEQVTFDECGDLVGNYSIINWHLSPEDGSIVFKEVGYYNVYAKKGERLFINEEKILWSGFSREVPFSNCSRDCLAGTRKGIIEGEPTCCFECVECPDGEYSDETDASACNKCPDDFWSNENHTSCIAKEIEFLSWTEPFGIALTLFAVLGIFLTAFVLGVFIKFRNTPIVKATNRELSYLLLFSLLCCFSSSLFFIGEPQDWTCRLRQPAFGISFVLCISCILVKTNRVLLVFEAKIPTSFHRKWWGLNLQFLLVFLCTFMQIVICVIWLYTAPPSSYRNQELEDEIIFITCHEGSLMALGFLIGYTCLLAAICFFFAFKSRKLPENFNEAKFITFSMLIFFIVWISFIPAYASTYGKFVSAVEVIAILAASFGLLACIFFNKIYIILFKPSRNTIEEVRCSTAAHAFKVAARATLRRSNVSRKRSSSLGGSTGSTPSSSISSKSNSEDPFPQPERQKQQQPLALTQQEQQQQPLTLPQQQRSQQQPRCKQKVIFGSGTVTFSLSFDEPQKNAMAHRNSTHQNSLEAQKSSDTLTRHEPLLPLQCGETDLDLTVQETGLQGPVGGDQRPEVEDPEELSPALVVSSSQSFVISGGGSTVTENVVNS
The assay can be described thus: CaSR FLIPR assay (calcilytic activity). Format: cell-based. Further details: expressed in transfected cells. To be noted: HEK293 cells stably expressing human recombinant CaSR; 1 mM CaCl2 agonist; Tables 1-24; read-out: FLIPR ASSAY IC50. As for the experimental part:
Procedures for CaSR FLIPR Assay
Calcilytic activity of the compound is measured in HEK293 cells stably expressing human recombinant CaSR (HEK-CaSR) using a FLIPR^TETRA device (Molecular Devices, Sunnyvale, Calif.) according to the manufacturer's directions. […] On the day of the assay, one vial of FLIPR Calcium 4 Assay Kit reagent Component A was equilibrated to room temperature. The content of the Component A vial was diluted by adding 10 ml dilution buffer (2×loading dye). The sample was mixed by vortexing (1-2 minutes) until the contents of the vial dissolved. The Component A vial mixture was diluted with 10 ml dilution buffer. Media was aspirated from the cells and 80 μl of loading buffer was added to each well. Plates were incubated for 1 hour at 37° C. and then placed at room temperature for 10 minutes. A two-stage method of generating 10-point serial dilutions was used. Compound was serially diluted in 100% DMSO (10 point, 3-fold dilution of each compound from 2 mM in 100% DMSO). 3 μl of serially diluted compound was transferred into a second assay microplate that contained 97 μl of TETRA dilution buffer (20 mM HEPES pH7.4, 1×HBSS without Ca and Mg, 0.4 mM CaCl2, 0.4 mM MgSO4, 0.5 mM MgCl2) to create the intermediate dilution plate. After reading the base line, the compounds in 0.5% DMSO in dilution buffer were added to their respective wells as 20 μl aliquots at 6×the final drug concentration. The fluorescence signals were then read. Subsequently, 20 μl of 3.6 mM of CaCl2 agonist (1 mM final concentration) was added to each well. For background, 20 μl of TETRA dilution buffer was added instead. The protocol consisted of a pre-addition read of 10 frames (10×1 frame/sec), a post 1st addition read of 100 frames (60×1 frame/sec, 40×1 frame/3 sec), pause 3 min, a post 2nd addition read of 100 frames (60×1 frame/sec, 40×1 frame/3 sec) on a FLIPR^TETRA Plate Reader.

For orientation: IC50 means the midpoint of a concentration-inhibition curve.

Each structure is given as a SMILES string.

On to `C[C@@H](OC[C@H](O)CNC(C)(C)Cc1ccc2ccccc2c1)c1cccc2c1[C@@H]1[C@H](O2)[C@H]1C(=O)NS(=O)(=O)C1(C)CC1` [Example 6-1], for which the concentration for half-maximal inhibition (IC50) came out at 30 nM. Take `CSc1ccc(CC(C)(C)NC[C@@H](O)CO[C@H](C)c2ccc(C)c3c2[C@@H]2[C@H](O3)[C@H]2C(=O)O)cc1C` [Example 8-34]: the half-inhibitory concentration (IC50) was 82 nM. As for `Cc1ccc([C@@H](C)OC[C@H](O)CNC(C)(C)CCSc2ccc(F)cc2)c2c1O[C@@H]1[C@@H](C(=O)O)[C@H]21` [Example 8-31], the figure is 65 nM; as for `C[C@@H](OC[C@H](O)CNC(C)(C)Cc1ccc2sccc2c1)c1cccc2c1[C@@H]1[C@H](O2)[C@H]1C(=O)O` [Example 5-9], 23 nM. With `C[C@@H](OC[C@H](O)CNC(C)(C)COCc1ccccc1)c1cccc2c1O[C@H]1[C@H](C(=O)O)[C@@H]21` [Example 2-5], the IC50 was found to be 4220 nM.

As to `CC(OC[C@H](O)CNC(C)(C)Cc1ccc2ccccc2c1)c1ccc2c(c1)C1C(O2)C1C(=O)O` (stereo partly shown) [Example 21-1], the IC50 turned out to be 2720 nM. As for `Cc1ccc([C@@H](C)OC[C@H](O)CNC(C)(C)CCOc2ccccc2)c2c1O[C@@H]1[C@@H](C(=O)O)[C@H]21` [Example 8-17], the figure is 90 nM.

For the compound `Cc1ccc(CC(C)(C)NC[C@@H](O)CO[C@H](C)c2cccc3c2O[C@@H]2[C@@H](C(=O)O)[C@H]32)cc1C` [Example 1-5], the IC50 was determined as 230 nM.

Regarding `Cc1ccc([C@@H](C)OC[C@H](O)CNC(C)(C)Cc2cc(F)c(F)cc2F)c2c1O[C@@H]1[C@@H](C(=O)O)[C@H]21` [Example 8-21], the half-inhibitory concentration (IC50) was found to be 99 nM. For `COc1ccc(CC(C)(C)NC[C@@H](O)CO[C@H](C)c2ccc(C)c3c2[C@@H]2[C@H](O3)[C@H]2C(=O)O)c(Cl)c1` [Example 8-28], the IC50 came to 22 nM. `C[C@@H](OC[C@H](O)CNC(C)(C)Cc1ccc(Cl)c(F)c1)c1cccc2c1O[C@@H]1[C@@H](C(=O)O)[C@H]21` [Example 1-2]: the half-maximal inhibitory concentration (IC50) turned out to be 148 nM. The value for `Cc1ccc([C@@H](C)OC[C@H](O)CNC(C)(C)Cc2ccc(Cl)c(F)c2)c2c1O[C@@H]1[C@@H](C(=O)O)[C@H]21` [Example 8-2] was 58.5 nM. As for `Cc1ccc([C@@H](C)OC[C@H](O)CNC(C)(C)Cc2ccc3c(c2)OCO3)c2c1O[C@@H]1[C@@H](C(=O)O)[C@H]21` [Example 8-11], the half-inhibitory concentration (IC50) is 50 nM. As for `CSc1ccc(CC(C)(C)NC[C@@H](O)CO[C@H](C)c2ccc(C)c3c2[C@@H]2[C@H](O3)[C@H]2C(=O)O)cc1Cl` [Example 8-33], the figure is 30 nM; as for `COc1ccc(CC(C)(C)NC[C@@H](O)CO[C@H](C)c2cccc3c2[C@@H]2[C@H](O3)[C@H]2C(=O)O)c(F)c1` [Example 5-11], 108 nM; as for `Cc1ccc([C@@H](C)OC[C@H](O)CNC(C)(C)CSCc2ccccc2)c2c1O[C@@H]1[C@@H](C(=O)O)[C@H]21` [Example 8-29], 500 nM. As to `COc1ccc(CC(C)(C)NC[C@@H](O)CO[C@H](C)c2ccc(C)c3c2[C@H]2[C@@H](O3)[C@@H]2C(=O)O)cc1F` [Example 9-5], the IC50 worked out at 224 nM. Regarding `Cc1ccc(CC(C)(C)NC[C@@H](O)CO[C@H](C)c2cccc3c2O[C@H]2[C@H](C(=O)O)[C@@H]32)cc1C` [Example 2-4], the IC50 was 381 nM. The value for `Cc1ccc([C@@H](C)OC[C@H](O)CNC(C)(C)Cc2ccc(Cl)cc2Cl)c2c1O[C@H]1[C@H](C(=O)O)[C@@H]21` [Example 9-9] was 77 nM; that for `C[C@@H](OC[C@H](O)CNC(C)(C)Cc1ccc2ccccc2c1)c1cccc2c1[C@@H]1[C@H](C2)[C@H]1C(=O)O` [Example 13-1] was 28 nM. As for `C[C@@H](OC[C@H](O)CNC(C)(C)Cc1ccc2c(c1)CCC2)c1cccc2c1O[C@@H]1[C@@H](C(=O)O)[C@H]21` [Example 1-7], the figure is 110 nM; as for `Cc1ccc([C@@H](C)OC[C@H](O)CNC(C)(C)CSc2ccc(F)cc2)c2c1O[C@@H]1[C@@H](C(=O)O)[C@H]21` [Example 8-32], 1410 nM; as for `C[C@@H](OC[C@H](O)CNC(C)(C)Cc1ccc(Cl)c(F)c1)c1cccc2c1[C@@H]1[C@H](O2)[C@H]1C(=O)O` [Example 5-2], 32 nM.

Consider `C[C@@H](OC[C@H](O)CNC(C)(C)CC1Cc2ccccc2C1)c1cccc2c1[C@@H]1[C@H](O2)[C@H]1C(=O)O` [Example 5-3], for which the IC50 turned out to be 35.5 nM. As to `Cc1ccc([C@@H](C)OC[C@H](O)CNC(C)(C)Cc2ccc3ccccc3c2)c2c1O[C@@H]1[C@@H](C(=O)O)[C@H]21` [Example 8-1], the concentration for half-maximal inhibition (IC50) was 14 nM.

As to `Cc1ccc(CC(C)(C)NC[C@@H](O)CO[C@H](C)c2ccc(C)c3c2[C@@H]2[C@H](O3)[C@H]2C(=O)O)cc1F` [Example 8-4], the half-inhibitory concentration (IC50) is 21 nM.

`Cc1ccc([C@@H](C)OC[C@H](O)CNC(C)(C)Cc2ccc(Cl)c(F)c2)c2c1O[C@H]1[C@H](C(=O)O)[C@@H]21` [Example 9-2]: the half-maximal inhibitory concentration (IC50) came out at 78 nM. As for `Cc1ccc([C@@H](C)OC[C@H](O)CNC(C)(C)Cc2ccc3c(c2)CCS3)c2c1O[C@@H]1[C@@H](C(=O)O)[C@H]21` [Example 8-26], the figure is 21 nM; as for `Cc1ccc(C(C)OC[C@H](O)CNC(C)(C)Cc2ccc3ccccc3c2)c2c1OC(C)(C)C1C(C(=O)O)C21` (stereo partly shown) [Example 24-1], 106 nM.

For the compound `CSc1ccc(CC(C)(C)NC[C@@H](O)CO[C@H](C)c2c(Cl)cc(C)c3c2[C@@H]2[C@H](O3)[C@H]2C(=O)O)cc1F` [Example 16-6], the concentration for half-maximal inhibition (IC50) was 17 nM. The value for `C[C@@H](OC[C@H](O)CNC(C)(C)CN1CCc2ccccc2C1)c1cccc2c1O[C@H]1[C@H](C(=O)O)[C@@H]21` [Example 2-8] was 7390 nM.

For `CC(C)(Cc1ccc2ccccc2c1)NC[C@@H](O)COc1ccc2c(c1)C1C(O2)C1C(=O)O` (stereo partly shown) [Example 22-1], the IC50 amounted to 3550 nM. As for `C[C@@H](OC[C@H](O)CNC(C)(C)Cc1ccc2c(c1)CCC2)c1cccc2c1[C@@H]1[C@H](O2)[C@H]1C(=O)O` [Example 5-7], the IC50 is 25 nM. Take `COc1ccc(CC(C)(C)NC[C@@H](O)CO[C@H](C)c2cccc3c2[C@@H]2[C@H](O3)[C@H]2C(=O)O)c(Cl)c1` [Example 5-16]: the half-inhibitory concentration (IC50) turned out to be 38 nM.

Take `Cc1ccc([C@@H](C)OC[C@H](O)CNC(C)(C)Cc2cc3ccccc3s2)c2c1O[C@@H]1[C@@H](C(=O)O)[C@H]21` [Example 8-6]: the IC50 turned out to be 96 nM. For `Cc1ccc([C@@H](C)OC[C@H](O)CNC(C)(C)Cc2ccc3occc3c2)c2c1O[C@@H]1[C@@H](C(=O)O)[C@H]21` [Example 8-7], the IC50 was determined as 42 nM.

Take `Cc1ccc([C@@H](C)OC[C@H](O)CNC(C)(C)Cc2ccc3c(c2)CCC3)c2c1O[C@@H]1[C@@H](C(=O)O)[C@H]21` [Example 8-10]: the IC50 is 15 nM.
